Data as given in patent US7452906B2, “Pyridine derivatives as Raf kinase inhibitors” (SmithKline Beecham P.L.C., priority 2001, dated 2008).
pIC50: −log10 of the molar value.

Experiments:
[1] = system: Human diploid foreskin fibroblasts (HFF); test: XTT 72 hr Growth Inhibition (Assay 3), HFF; type: cell-based; details: Fibroblast, normal, B-Raf wt, Ras wt
Description: (§1) XTT 72 hr Growth Inhibition Protocol for Mammalian Cultured Cells (Assay 3)
(§2) Human diploid foreskin fibroblasts (HFF) or human colon carcinoma (Colo 201) cells were grown in Dulbecco's modified Eagle's medium (DMEM) (Invitrogen/Life Technologies) containing 10% fetal bovine serum (FBS) and the antibiotics penicillin (100 Units/ml) and streotomycin (100 micrograms/ml) (Invitrogen/Life Technologies). Growth was at 37° C. in humidified 5% CO2 incubators in 75 cm^2 plastic flasks. Cells were harvested using 0.25% trypsin/1 mM ethylenediaminetetraacetic acid (EDTA), resuspended in growth medium, and counted using a hemocytometer. Flat-bottomed 96-well plates were seeded with 2×10^3 cells/well in a volume of 200 ul from trypsinized exponentially growing cultures. To “blank” wells, growth medium was added with no additions. Cells were incubated overnight to permit attachment.
(§3) Next day, medium from wells that contained cells was replaced with 180 microliters of fresh medium. Appropriate dilutions of test compounds were added to the wells from stock soloutions of compound dissolved in dimethyl sulfoxide DMSO); final DMSO concentration in all wells was 0.2%. Cells plus compound were incubated for an additional 72 hr at 37° C. under normal growth conditions. Cells were then assayed for viability using standard XTT/PMS*. Fifty microliters of XTT/PMS solution was added to each well and plates were incubated for 90 minutes at 37° C. Absorbance at 450 nm was then determined using a 96-well UV plate reader (Molecular Devices). Under these conditions, absorbance of untreated control cells at 450 nm was at least 1.0 optical density unit/ml. […] It was equal to 100×(A450 test well/A450 untreated control well), the A450s being averages of triplicate determinations. […]

[2] = system: human colon carcinoma (Colo 201) cells; test: XTT 72 hr Growth Inhibition (Assay 3), Colo201; type: cell-based; details: colorectal cancer, B-Raf and Ras status ND
Description: as §1, §2, §3

human melanoma SKMEL2 = test: Methylene Blue Growth Inhibition Assay (Assay 2), SKMEL2; type: cell-based; details: SK-MEL-2, 72 h, B-Raf wt, [Q61R]N-Ras, 3 days
Description: (§4) Methylene Blue Growth Inhibition Assay (Assay 2)
(§5) Normal human foreskin fibroblasts (HFF), human melanoma (A375P, SKMEL2, SKMEL3) colon carcinoma (Colo 205) were cultured in the following growth media: A375P, Colo 205, Roswell Park Memorial Institute (RPMI) 1640 (Life Technologies 22400-089) containing 10% fetal bovine serum (FBS); HFF, Dulbecco's modified Eagle Medium (DMEM) (Life Technologies 12320-032) containing 10% FBS; SKMEL2 and SKMEL3, Minimum Essential Medium (MEM, Life Technologies 11095-080) containing 1× non-essential amino acids (Life Technologies 11140-050) and 10% FBS. Cells were harvested using 0.25% trypsin/1 mM, EDTA, counted using a haemocytometer, and plated in 100 microliters of the appropriate media, at the following densities, in a 96-well tissue culture plate Falcon 3075): HFF and A375P, 5,000 cells/well; all other cell lines, 10,000 cells/well. The next day, compounds were diluted in RPMI containing 100 micrograms/ml gentamicin, at twice the final required concentration, from 10 mM stock solutions in dimethyl sulphoxide (DMSO). One hundred microliters per well of these dilutions were added to the 100 microliters of media currently on the cell plates. RPMI containing 0.6% DMSO was added to control wells. […]. The final concentration of DMSO in all wells was 0.3%. Cells were incubated at 37° C., 5% CO2 for 3 days. Medium was removed by aspiration. Cell biomass was estimated by staining cells with 90 μl per well methylene blue (Sigma M9140, 0.5% in 50:50 ethanol:water) and incubation at room temperature for at least 30 minutes. Stain was removed, the plates rinsed by immersion in deionized water and air-dried. To release stain from the cells 100 μl of solubilization solution was added (1% N-lauroyl sarcosine, sodium salt, Sigma L5125, in phosphate-buffered saline solution (PBS)), and plates were incubated at room temperature for 30 minutes. Optical density at 620 nm was measured on a microplate reader. Percent inhibition of cell growth was calculated relative to vehicle treated control wells. […]

human melanoma A375P = test: Methylene Blue Growth Inhibition Assay (Assay 2), A375P; type: cell-based; details: 72 h, B-Raf V599E, Ras wt, 3 days
Description: as §4, §5

[3] = system: colon carcinoma (Colo 205); test: Methylene Blue Growth Inhibition Assay (Assay 2), Colo205; type: cell-based; details: Homo sapiens, COLO 205, 72 h, colorectal cancer, B-Raf V599E, Ras wt, 3 days
Description: as §4, §5

human melanoma SKMEL3 = test: Methylene Blue Growth Inhibition Assay (Assay 2), SKMEL3; type: cell-based; details: SK-MEL3, 72 h, B-Raf V599E, Ras wt, 3 days
Description: as §4, §5

[4] = molecular target: T1, human recombinant B-Raf protein (Homo sapiens, UniProt P15056); test: Raf Kinase Assay (Assay 1): incorporation of radiolabelled phosphate into GST-kdMEK; type: biochemical; details: head: Assay 1
T1 construct: made in house; host or cells: Sf9 insect cells (baculovirus)
T1 sequence (P15056 whole entry): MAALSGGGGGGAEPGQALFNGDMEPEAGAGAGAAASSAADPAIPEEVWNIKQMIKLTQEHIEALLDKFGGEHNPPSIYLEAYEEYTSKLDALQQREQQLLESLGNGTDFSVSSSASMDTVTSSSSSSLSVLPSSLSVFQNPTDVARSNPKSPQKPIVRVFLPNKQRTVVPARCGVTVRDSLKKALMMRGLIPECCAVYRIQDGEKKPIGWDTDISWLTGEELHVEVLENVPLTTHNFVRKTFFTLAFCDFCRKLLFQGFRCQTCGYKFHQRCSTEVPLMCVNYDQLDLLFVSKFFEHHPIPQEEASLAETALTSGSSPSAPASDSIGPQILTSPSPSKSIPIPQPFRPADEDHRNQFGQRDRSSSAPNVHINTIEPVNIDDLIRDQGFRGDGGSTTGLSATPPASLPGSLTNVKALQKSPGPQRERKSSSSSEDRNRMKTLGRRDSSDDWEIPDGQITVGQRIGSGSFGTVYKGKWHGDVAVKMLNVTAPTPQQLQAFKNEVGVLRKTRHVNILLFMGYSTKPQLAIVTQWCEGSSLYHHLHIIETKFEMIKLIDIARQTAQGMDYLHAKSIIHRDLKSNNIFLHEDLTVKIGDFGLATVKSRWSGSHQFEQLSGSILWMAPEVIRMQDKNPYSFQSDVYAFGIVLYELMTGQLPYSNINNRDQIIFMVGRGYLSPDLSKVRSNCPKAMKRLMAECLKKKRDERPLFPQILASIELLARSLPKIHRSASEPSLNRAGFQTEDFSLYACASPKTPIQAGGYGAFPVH
Description: Activity of human recombinant B-Raf protein was assessed in vitro by assay of the incorporation of radiolabelled phosphate to recombinant MAP kinase kinase (MEK), a known physiologic substrate of B-Raf. Catalytically active human recombinant B-Raf protein was obtained by purification from Sf9 insect cells infected with a human B-Raf recombinant baculovirus expression vector.
Method: Standard assay conditions of B-Raf catalytic activity utilised 3 ug of GST-kdMEK, 10 uM ATP and 2uCi ^33P-ATP, 50 mM MOPS, 0.1 mM EDTA, 0.1M sucrose, 10 mM MgCl2 plus 0.1% dimethylsulphoxide (containing compound where appropriate) in a total reaction volume of 30 ul. Reactions were incubated at 25° C. for 90 minutes and reactions terminated by addition of ethylenediaminetetraacetic acid (EDTA) to a final concentration of 50 uM. 10 ul of reaction was spotted to P81 phosphocellulose paper and air dried. Following four washes in ice cold 10% trichloroacetic acid, 0.5% phosphoric acid, papers were air dried prior to addition of liquid scintillant and measurement of radioactvity in a scintillation counter.

pIC50 [2] | pIC50 (human melanoma SKMEL2) | pIC50 (human melanoma A375P) | pIC50 [3] | pIC50 (human melanoma SKMEL3) | Kd [4] [nM] | SMILES | pIC50 [1]
6.31 | 5.38 | 5.89 | 6.12 | 5.28 | – | ON=C1CCc2cc(-c3cc(CN4CCOCC4)oc3-c3ccncc3)ccc21 [Example 1, 5-(5-Morpholin-4-ylmethyl-2-pyridin-4-yl-furan-3-yl)-indan-1-one oxime] | < 4.52
6.05 | 5.60 | 6.22 | 6.64 | 5.27 | 3.6 | O=S1(=O)CCN(Cc2cc(-c3ccc4c(c3)CCC4=NO)c(-c3ccncc3)o2)CC1 [Example 5, 5-[5-(1,1-Dioxo-1-thiomorpholin-4-ylmethyl)-2-pyridin-4-yl-furan-3-yl]-indan-1-one oxime] | < 4.52
8.00 | 6.77 | 7.37 | 8.00 | 6.19 | – | ON=C1CCc2cc(-c3cc(C4CCNCC4)oc3-c3ccncc3)ccc21 [Example 31, 5-(5-Piperidin-4-yl-2-pyridin-4-yl-furan-3-yl)-indan-1-one oxime] | 4.68
